Measurements as given in patent US20250197374A1, “WEE1 DEGRADING COMPOUNDS AND USES THEREOF” (BRISTOL-MYERS SQUIBB COMPANY, priority 2023, published 2025).

Molecular target: T1, WEE1 (Homo sapiens, UniProt P30291+Q96SW2)
T1 construct: C-terminal ePL-tagged (DiscoverX, Fremont, CA) full-length WEE1 expression construct; expressed in transfected cells; host or cells: LentiX-HEK293T (Invitrogen), lentivirally transduced; the cells also over-express GSPT1-GN
Assay: WEE1-ePL degradation assay (293T-LentiX, InCELL Hunter luminescence, 4 hr)
Type: cell-based
Settings: for DC50: LentiX-HEK293T cells expressing WEE1-ePL, 4 hr incubation, read-out: 293T-LentiX WEE1-ePL Degradation 4 hr EC50; for 293T-LentiX WEE1-ePL Degradation 4 hr YMin (%): lower limit of fit, % of DMSO control signal remaining
Text: To generate LentiX-WEE1-ePL-GSPT1-ND cells for the WEE1 degradation assay, LentiX-HEK293T (Invitrogen) were tranduced by lentivirus with a C-terminal ePL-tagged (DiscoverX, Fremont, CA) full-length WEE1 expression construct. A separate lentiviral construct was introduced to over-express a mutated form of GSPT1 (NP_002085), termed GSPT1-GN, which contains a G575N mutation and is further truncated in the first 158 amino acids. GSPT1-GN is functional but not degradable by Cereblon. Cells were selected and maintained in complete DMEM media (DMEM, 10% Heat Inactivated FBS, 400 μg/mL Geneticin, and 1 μg/mL puromycin at 37 C and 5% CO2). Cells were passaged every 3-4 days by reseeding 1×10^6 cells in a T150 flask.
Cells were dispensed into 384-well white plates (Corning #3570, NY) that were pre-spotted with compounds using an acoustic dispenser (Echo acoustic transfer system, Beckman Coulter Life Sciences, Carlsbad, CA) as a 10-point dose-response curve with a 3-fold dilution starting at either 1 uM or 10 uM and including a DMSO control. Twenty-five microliters of media containing 2500 cells for LentiX-oeWEE1-ePL was dispensed per well. Assay plates were incubated at 37° C. with 5% CO2 for four hours (WEE1) After incubation, 25 μL of the InCELL Hunter™ Detection Reagent Working Solution (DiscoverX, Fremont, CA) was added to each well and incubated at room temperature for 30 minutes protected from light. After 30 minutes, luminescence was read on a PHERAstar luminometer (Cary, NC).
To determine the half-maximal effective concentration (EC50) values for WEE1-ePL degradation, a four parameter logistic model was used: (Sigmoidal Dose-Response Model) (FIT=(A+((B−A)/1+((C/x)^D)))) where C is the inflection point (EC50), D is the Hill slope, and A and B are the low and high limits of the fit respectively). The lower limit of the fit (value A) is referred to as Ymin. […] The maximum limit constraint, Ymax, is similarly derived using DMSO control. The curves were processed and evaluated using Activity Base (IDBS, Alameda, CA) or using Dotmatics (Boston, MA).

T1 sequence (P30291 whole entry): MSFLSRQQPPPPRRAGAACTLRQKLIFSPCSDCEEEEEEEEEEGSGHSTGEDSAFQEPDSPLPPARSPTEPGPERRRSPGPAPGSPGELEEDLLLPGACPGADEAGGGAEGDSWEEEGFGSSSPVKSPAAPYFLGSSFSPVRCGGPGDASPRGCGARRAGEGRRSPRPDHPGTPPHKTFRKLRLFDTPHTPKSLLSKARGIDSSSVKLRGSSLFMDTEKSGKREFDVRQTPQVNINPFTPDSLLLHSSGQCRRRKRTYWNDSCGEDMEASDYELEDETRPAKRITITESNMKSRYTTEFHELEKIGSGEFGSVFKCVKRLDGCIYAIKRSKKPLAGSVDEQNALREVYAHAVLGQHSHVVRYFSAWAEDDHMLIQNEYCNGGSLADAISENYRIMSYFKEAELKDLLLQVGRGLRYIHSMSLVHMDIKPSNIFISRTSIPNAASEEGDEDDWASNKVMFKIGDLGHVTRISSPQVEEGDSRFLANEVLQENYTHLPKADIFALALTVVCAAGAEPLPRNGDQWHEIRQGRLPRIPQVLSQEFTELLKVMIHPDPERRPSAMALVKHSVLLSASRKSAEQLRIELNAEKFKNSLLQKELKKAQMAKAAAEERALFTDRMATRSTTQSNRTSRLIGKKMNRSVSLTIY
T1 sequence (Q96SW2 whole entry): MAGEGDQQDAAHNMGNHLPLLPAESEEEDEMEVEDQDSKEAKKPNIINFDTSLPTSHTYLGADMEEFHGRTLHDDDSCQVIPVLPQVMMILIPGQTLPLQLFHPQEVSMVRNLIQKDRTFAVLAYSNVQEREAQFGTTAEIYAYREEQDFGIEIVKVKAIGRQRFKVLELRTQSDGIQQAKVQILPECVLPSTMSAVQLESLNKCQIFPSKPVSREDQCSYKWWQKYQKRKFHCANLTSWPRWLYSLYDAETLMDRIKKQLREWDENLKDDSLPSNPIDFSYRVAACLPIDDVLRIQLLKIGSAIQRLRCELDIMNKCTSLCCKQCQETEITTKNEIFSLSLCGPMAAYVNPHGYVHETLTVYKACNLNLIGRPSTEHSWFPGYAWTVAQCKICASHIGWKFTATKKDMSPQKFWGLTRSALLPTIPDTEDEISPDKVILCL
T1 sequence (Q16531 whole entry partner): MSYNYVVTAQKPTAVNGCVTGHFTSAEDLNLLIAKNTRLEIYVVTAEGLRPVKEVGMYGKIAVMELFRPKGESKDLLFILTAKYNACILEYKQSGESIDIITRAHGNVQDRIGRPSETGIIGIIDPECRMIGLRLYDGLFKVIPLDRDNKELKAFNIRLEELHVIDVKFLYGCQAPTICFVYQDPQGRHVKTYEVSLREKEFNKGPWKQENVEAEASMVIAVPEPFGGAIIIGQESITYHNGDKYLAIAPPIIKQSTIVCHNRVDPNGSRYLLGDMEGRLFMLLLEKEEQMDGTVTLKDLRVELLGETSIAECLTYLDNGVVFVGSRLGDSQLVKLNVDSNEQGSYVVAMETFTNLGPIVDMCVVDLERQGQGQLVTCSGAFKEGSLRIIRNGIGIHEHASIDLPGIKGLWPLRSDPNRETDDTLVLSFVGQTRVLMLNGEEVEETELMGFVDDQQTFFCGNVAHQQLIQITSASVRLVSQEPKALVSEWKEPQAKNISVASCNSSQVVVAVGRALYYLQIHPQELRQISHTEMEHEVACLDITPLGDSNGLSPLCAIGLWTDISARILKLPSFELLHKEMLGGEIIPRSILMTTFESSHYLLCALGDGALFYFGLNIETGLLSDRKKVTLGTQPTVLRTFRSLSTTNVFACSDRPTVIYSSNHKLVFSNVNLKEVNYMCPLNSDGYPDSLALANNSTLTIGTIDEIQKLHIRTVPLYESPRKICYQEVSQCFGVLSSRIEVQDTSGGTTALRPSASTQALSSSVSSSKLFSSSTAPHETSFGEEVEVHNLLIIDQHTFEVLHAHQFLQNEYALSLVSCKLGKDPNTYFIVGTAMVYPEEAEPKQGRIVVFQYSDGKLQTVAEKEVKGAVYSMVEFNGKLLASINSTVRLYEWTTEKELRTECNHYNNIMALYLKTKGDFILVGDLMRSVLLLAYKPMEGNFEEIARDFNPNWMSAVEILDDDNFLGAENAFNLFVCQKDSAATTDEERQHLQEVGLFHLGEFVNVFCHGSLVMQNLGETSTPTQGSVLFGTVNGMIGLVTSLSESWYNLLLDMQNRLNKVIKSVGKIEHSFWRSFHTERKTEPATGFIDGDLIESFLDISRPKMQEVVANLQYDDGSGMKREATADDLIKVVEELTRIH

Compound	DC50 [nM]	293T-LentiX WEE1-ePL Degradation 4 hr YMin (%)
COC[C@@H]1CN(Cc2ccc3cc(N4CCOCC4)cnc3c2F)C[C@H]1Oc1ccc2c(c1)CN([C@H]1CCC(=O)NC1=O)C2=O [Example 101, (3S)-3-(5-{[(3S,4S)-1-{[8-fluoro-3-(morpholin-4-yl)quinolin-7-yl]methyl}-4-(methoxymethyl)pyrrolidin-3-yl]oxy}-1-oxo-2,3-dihydro-1H-isoindol-2-yl)piperidine-2,6-dione]	3	33.0
COC[C@@H]1CN(Cc2cc3ccc(N4CCN(C(C)=O)CC4)cc3c(F)n2)C[C@H]1Oc1ccc2c(c1)CN([C@H]1CCC(=O)NC1=O)C2=O [Example 124, (3S)-3-(5-{[(3S,4S)-1-{[7-(4-acetylpiperazin-1-yl)-1-fluoroisoquinolin-3-yl]methyl}-4-(methoxymethyl)pyrrolidin-3-yl]oxy}-1-oxo-2,3-dihydro-1H-isoindol-2-yl)piperidine-2,6-dione]	–	25.4
CC(C)(C)C[C@@H]1CN(Cc2cc(F)c3nc(C4CCOCC4)ccc3c2)C[C@H]1Oc1ccc2c(c1)CN([C@H]1CCC(=O)NC1=O)C2=O (relative stereo) [Example 131, (3S)-3-(5-{[(3S*,4R*)-4-(2,2-dimethylpropyl)-1-{[8-fluoro-2-(oxan-4-yl)quinolin-6-yl]methyl}pyrrolidin-3-yl]oxy}-1-oxo-2,3-dihydro-1H-isoindol-2-yl)piperidine-2,6-dione]	–	100.0
O=C1CC[C@H](N2Cc3cc(O[C@@H]4CN(Cc5cc(F)c6nc(C7CCOCC7)ccc6c5)C[C@H]4OCC4CC4)ccc3C2=O)C(=O)N1 [Example 125, (3S)-3-(5-{[(3R,4R)-4-(cyclopropyl-methoxy)-1-{[8-fluoro-2-(oxan-4-yl)quinolin-6-yl]methyl}pyrrolidin-3-yl]oxy}-1-oxo-2,3-dihydro-1H-isoindol-2-yl)piperidine-2,6-dione]	4	29.2
COC[C@@H]1CN(Cc2ccc3nc(N4CCN(C(C)=O)C5(COC5)C4)ncc3c2)C[C@H]1Oc1ccc2c(c1)CN([C@H]1CCC(=O)NC1=O)C2=O [Example 95, (3S)-3-(5-{[(3S,4S)-1-[(2-{5-acetyl-2-oxa-5,8-diazaspiro[3.5]nonan-8-yl}quinazolin-6-yl)methyl]-4-(methoxymethyl)pyrrolidin-3-yl]oxy}-1-oxo-2,3-dihydro-1H-isoindol-2-yl)piperidine-2,6-dione]	2	20.9
COC[C@@H]1CN(Cc2cc(F)c3cc(N4CCOCC4)ncc3c2)C[C@H]1Oc1ccc2c(c1)CN([C@H]1CCC(=O)NC1=O)C2=O [Example 49, (3S)-3-(5-{[(3S,4S)-1-{[5-fluoro-3-(morpholin-4-yl)isoquinolin-7-yl]methyl}-4-(methoxymethyl)pyrrolidin-3-yl]oxy}-1-oxo-2,3-dihydro-1H-isoindol-2-yl)piperidine-2,6-dione]	2	24.5
Cc1cc([C@@H]2CN(Cc3cc(F)c4nc(C5CCOCC5)ccc4c3)C[C@H]2Oc2ccc3c(c2)CN([C@H]2CCC(=O)NC2=O)C3=O)ccn1 (relative stereo) [Example 126, (3S)-3-(5-{[(3S*,4R*)-1-{[8-fluoro-2-(oxan-4-yl)quinolin-6-yl]methyl}-4-(2-methylpyridin-4-yl)pyrrolidin-3-yl]oxy}-1-oxo-2,3-dihydro-1H-isoindol-2-yl)piperidine-2,6-dione]	–	90.0
COC[C@@H]1CN(Cc2cc(F)c3nc(C)c(N4CCOCC4)cc3c2)C[C@H]1Oc1ccc2c(c1)CN([C@H]1CCC(=O)NC1=O)C2=O [Example 100, (3S)-3-(5-{[(3S,4S)-1-{[8-fluoro-2-methyl-3-(morpholin-4-yl)quinolin-6-yl]methyl}-4-(methoxymethyl)pyrrolidin-3-yl]oxy}-1-oxo-2,3-dihydro-1H-isoindol-2-yl)piperidine-2,6-dione]	1	24.6
COC[C@@H]1CN(Cc2ccc3ncc(N4CCOCC4)cc3c2F)C[C@H]1Oc1ccc2c(c1)CN([C@H]1CCC(=O)NC1=O)C2=O [Example 31, (3S)-3-(5-{[(3S,4S)-1-{[5-fluoro-3-(morpholin-4-yl)quinolin-6-yl]methyl}-4-(methoxymethyl)pyrrolidin-3-yl]oxy}-1-oxo-2,3-dihydro-1H-isoindol-2-yl)piperidine-2,6-dione]	–	20.1

Second part, the molecule after the results:

DC50 [nM]	293T-LentiX WEE1-ePL Degradation 4 hr YMin (%)	Compound
3	21.4	COC[C@@H]1CN(Cc2cc(F)c3nc(C4CCN(C5COC5)CC4)ncc3c2)C[C@H]1Oc1ccc2c(c1)CN([C@H]1CCC(=O)NC1=O)C2=O [Example 144, (3S)-3-(5-{[(3S,4S)-1-({8-fluoro-2-[1-(oxetan-3-yl)piperidin-4-yl]quinazolin-6-yl}methyl)-4-(methoxymethyl)pyrrolidin-3-yl]oxy}-1-oxo-2,3-dihydro-1H-isoindol-2-yl)piperidine-2,6-dione]
10	48.5	CC(C)(C)C[C@H]1CN(Cc2cc(F)c3nc(C4CCOCC4)ccc3c2)C[C@@H]1Oc1ccc2c(c1)CN([C@H]1CCC(=O)NC1=O)C2=O (relative stereo) [Example 150, (3S)-3-(5-{[(3R*,4S*)-4-(2,2-dimethylpropyl)-1-{[8-fluoro-2-(oxan-4-yl)quinolin-6-yl]methyl}pyrrolidin-3-yl]oxy}-1-oxo-2,3-dihydro-1H-isoindol-2-yl)piperidine-2,6-dione]
70	58.0	O=C1CCC(N2Cc3cc(O[C@@H]4CN(Cc5cc(F)c6nc(C7CCOCC7)ccc6c5)C[C@H]4OC4COC4)ccc3C2=O)C(=O)N1 (relative stereo) [Example 133, rel-3-(5-(((3R,4R)-1-((8-fluoro-2-(tetrahydro-2H-pyran-4-yl)quinolin-6-yl)methyl)-4-(oxetan-3-yloxy)pyrrolidin-3-yl)oxy)-1-oxoisoindolin-2-yl)piperidine-2,6-dione]
11	22.4	Cc1cc([C@H]2CN(Cc3cc(F)c4nc(C5CCOCC5)ccc4c3)C[C@@H]2Oc2ccc3c(c2)CN([C@H]2CCC(=O)NC2=O)C3=O)ccn1 (relative stereo) [Example 151, (3S)-3-(5-{[(3R*,4S*)-1-{[8-fluoro-2-(oxan-4-yl)quinolin-6-yl]methyl}-4-(2-methylpyridin-4-yl)pyrrolidin-3-yl]oxy}-1-oxo-2,3-dihydro-1H-isoindol-2-yl)piperidine-2,6-dione]
–	82.2	O=C1CCC(N2Cc3cc(O[C@H]4CN(Cc5cc(F)c6nc(C7CCOCC7)ccc6c5)C[C@@H]4OC4COC4)ccc3C2=O)C(=O)N1 (relative stereo) [Example 152, rel-3-(5-(((3S,4S)-1-((8-fluoro-2-(tetrahydro-2H-pyran-4-yl)quinolin-6-yl)methyl)-4-(oxetan-3-yloxy)pyrrolidin-3-yl)oxy)-1-oxoisoindolin-2-yl)piperidine-2,6-dione]
5	44.9	CC(C)O[C@@H]1CN(Cc2cc(F)c3nc(C4CCOCC4)ccc3c2)C[C@H]1Oc1ccc2c(c1)CN([C@H]1CCC(=O)NC1=O)C2=O [Example 132, (3S)-3-(5-{[(3R,4R)-1-{[8-fluoro-2-(oxan-4-yl)quinolin-6-yl]methyl}-4-(propan-2-yloxy)pyrrolidin-3-yl]oxy}-1-oxo-2,3-dihydro-1H-isoindol-2-yl)piperidine-2,6-dione]
